# Test: Storage stability of crystalline form (polymorphic transformation)
# Format: physicochemical
# Conditions: stored under 100% relative humidity at 40° C. for 3 days
# Text: In another embodiment, the present invention provides a solid crystalline form of ibandronate sodium denominated Form QQ. Form QQ is characterized by x-ray powder diffraction reflections at 6.2, 25.9, 26.7, 31.1, and 37.2±0.2 degrees two-theta. Form QQ can be further characterized by x-ray powder diffraction reflections at 16.9, 17.3, 21.5, 24.7, and 29.2±0.2 degrees two-theta. […] Form QQ also has a particle size distribution of not more than 100μpreferably not more than 60μ. […] can be a in the range of a monohydrate to a trihydrate. Form QQ can be further characterized by TGA, showing a weight loss of about 5 to about 12%.
compound,measurement,value
"CCCCCN(C)CCC(O)(P(=O)([O-])O)P(=O)(O)O.[Na+] [Form QQ, (1-hydroxy-3-(N-methyl-N-pentylamino)propylidene) bisphosphonic acid monosodium salt]",transformation into other polymorphic forms when stored,≤ 5%
